# According to US20220042033A1, “COMPOSITION AND METHOD FOR CONFERRING AND/OR ENHANCING TOLERANCE AGAINST HERBICIDES BY USING VARIANTS OF PPO” (FarmHannong Co., Ltd., priority 2017, published 2022):
# pIC50: −log10 of the molar value.
# Columns and labels:
# [1] = system: E. coli BT3(ΔPPO) transformed with Myxococcus xanthus MxPPO (SEQ ID NO: 3) variant A170C; experiment: Herbicide tolerance test in PPO-deficient E. coli BT3(ΔPPO), growth on plates; format: cell-based; settings: Table 9, light, tiafenacil to 2000 μM, saflufenacil to 200 μM, flumioxazin to 100 μM
# Method: (§2) The mutated CyPPO gene obtained from the Example 2 was transformed to BT3 (ΔPPO) strain which is deficient of PPO activity and cultured in LB media with PPO-inhibiting herbicide, thereby examining whether growth of transformed BT3 was not inhibited.
# (§3) BT3 competent cells were transformed with the pET303-ApPPO1 and pET303-MxPPO plasmids and those with a mutation(s) constructed in Example 2 respectively, and were cultured in LB agar media containing carbenicillin (Gold Biotechnology, Co., Ltd.).
# (§4) Single colony of E. coli transformed with each CyPPO gene was cultured in 3 ml of LB broth containing carbenicillin overnight, and then was subcultured until absorbance (OD600) reached 0.5 to 1. Then, it was diluted with LB broth to OD600=0.5. Again, the diluted solution was serially diluted 4 times by a factor of one tenth.
# (§5) The LB agar media (LB 25 g/l, Bacto agar 15 g/l) containing carbenicillin (100 μg/ml) and 0 to 4,000 μM of various herbicides dissolved in DMSO was prepared. Next, 10 μl of each diluted solution was dropped on the plate and cultured at 37° C. under light (Tables 7, 9 and 10, FIGS. 2 to 6, 13 to 20) or dark (Tables 8 and 11, FIGS. 7 to 12, 21 to 24) for 16 to 20 hours. Then, the extent of tolerance was evaluated.
# (§6) The extent of herbicide tolerance of the ApPPO1 or MxPPO mutated genes was evaluated by comparing that of mutated genes with that of ApPPO1 or MxPPO wild type. […]
# [2] = system: E. coli BT3(ΔPPO) transformed with Auxenochlorella protothecoides ApPPO1 (SEQ ID NO: 1) variant A215C (AC); experiment: as above; format: cell-based; settings: Table 7, light, 37° C., 16 to 20 hours, vs wild type at highest herbicide concentration
# Method: as §2, §3, §4, §5
# (§7) The extent of herbicide tolerance of the ApPPO1 or MxPPO mutated genes was evaluated by comparing that of mutated genes with that of ApPPO1 or MxPPO wild type. The relative tolerance was represented with “+” as a factor of 10 times.
# (§8) In Tables 7 to 11, tolerance level was presented as ‘−’ of tolerance of wild type and of variants equivalent to that of wild type, and was done as ‘+’ per each 10 fold resistance until ‘+++++’ as maximal resistance. […] A dilution series (OD600=0.5, 0.05, 0.005, 0.0005, 0.00005) was made and spotted on LB agar plates supplemented with herbicides.
# [3] = system: E. coli BT3(ΔPPO) transformed with Myxococcus xanthus MxPPO (SEQ ID NO: 3) variant A170L; experiment: as above; format: cell-based; settings: Table 9, light, tiafenacil to 2000 μM, saflufenacil to 200 μM, flumioxazin to 100 μM
# Method: as §2, §3, §4, §5, §6
# [4] = biological target: T1, Myxococcus xanthus MxPPO (SEQ ID NO: 3) variant I168C, fused to MBP (Myxococcus xanthus, UniProt P56601, I168C); experiment: PPO enzyme inhibition assay (IC50), MBP-fused PPO (Table 15); format: biochemical
# T1 construct: For encoding the PPO protein (MxPPO); made in house; host or cells: BL21 CodonPlus(DE3) E. coli
# T1 sequence (P56601 whole entry I168C, the tested form may be a part): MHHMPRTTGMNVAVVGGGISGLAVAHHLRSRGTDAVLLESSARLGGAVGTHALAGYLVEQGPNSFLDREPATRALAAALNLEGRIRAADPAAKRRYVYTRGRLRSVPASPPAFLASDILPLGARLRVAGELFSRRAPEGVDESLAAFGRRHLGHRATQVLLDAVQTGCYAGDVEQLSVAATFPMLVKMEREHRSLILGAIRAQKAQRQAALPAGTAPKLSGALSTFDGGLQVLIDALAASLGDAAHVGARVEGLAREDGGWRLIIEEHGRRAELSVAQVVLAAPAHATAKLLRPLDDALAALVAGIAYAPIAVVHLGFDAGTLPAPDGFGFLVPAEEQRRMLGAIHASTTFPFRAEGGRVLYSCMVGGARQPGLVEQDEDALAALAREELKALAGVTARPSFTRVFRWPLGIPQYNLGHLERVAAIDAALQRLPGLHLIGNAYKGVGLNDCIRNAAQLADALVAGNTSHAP
# [5] = system: E. coli BT3(ΔPPO) transformed with Auxenochlorella protothecoides ApPPO1 (SEQ ID NO: 1) variant Y422I (YI); format: cell-based; settings: Table 7, light, 37° C., 16 to 20 hours, vs wild type at highest herbicide concentration
# Method: as §2, §3, §4, §5, §7, §8
# [6] = biological target: T2, Myxococcus xanthus MxPPO (SEQ ID NO: 3) variant V164A, fused to MBP (Myxococcus xanthus, UniProt P56601, V164A); experiment: PPO enzyme inhibition assay (IC50), MBP-fused PPO (Table 15); format: biochemical
# T2 construct: For encoding the PPO protein (MxPPO); made in house; host or cells: BL21 CodonPlus(DE3) E. coli
# T2 sequence (P56601 whole entry V164A, the tested form may be a part): as the sequence (P56601 whole entry I168C, the tested form may be a part) above, with V164A, C168I counted along it
# [7] = biological target: Auxenochlorella protothecoides ApPPO1 (SEQ ID NO: 1) variant V360M, fused to MBP (Auxenochlorella protothecoides, UniProt A0A087SQM0, V360M); experiment: PPO enzyme inhibition assay (IC50), MBP-fused PPO; format: biochemical
# Auxenochlorella protothecoides ApPPO1 (SEQ ID NO: 1) variant V360M, fused to MBP, sequence (A0A087SQM0 entry or part of it V360M): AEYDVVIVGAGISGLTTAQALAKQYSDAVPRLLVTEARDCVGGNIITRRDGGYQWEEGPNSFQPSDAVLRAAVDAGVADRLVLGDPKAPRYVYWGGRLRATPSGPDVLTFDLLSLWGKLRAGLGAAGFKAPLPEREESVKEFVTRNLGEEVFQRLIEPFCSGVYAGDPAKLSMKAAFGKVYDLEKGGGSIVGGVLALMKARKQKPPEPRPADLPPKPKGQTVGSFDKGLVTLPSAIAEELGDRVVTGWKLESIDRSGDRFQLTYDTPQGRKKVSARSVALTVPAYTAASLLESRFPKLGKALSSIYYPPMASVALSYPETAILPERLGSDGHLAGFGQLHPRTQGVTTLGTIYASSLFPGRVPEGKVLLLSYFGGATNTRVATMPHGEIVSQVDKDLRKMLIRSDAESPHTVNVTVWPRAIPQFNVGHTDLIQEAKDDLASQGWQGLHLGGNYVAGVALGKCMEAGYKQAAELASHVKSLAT
# [8] = biological target: Auxenochlorella protothecoides ApPPO1 (SEQ ID NO: 1) variant A215C, fused to MBP (Auxenochlorella protothecoides, UniProt A0A087SQM0, A215C); experiment: PPO enzyme inhibition assay (IC50), MBP-fused PPO; format: biochemical
# Auxenochlorella protothecoides ApPPO1 (SEQ ID NO: 1) variant A215C, fused to MBP, sequence (A0A087SQM0 entry or part of it A215C): as the sequence (A0A087SQM0 entry or part of it V360M) above, with A165C, M310V counted along it
# Method: (§9) Thus, PPO proteins of wild type and variants were expressed as fused to MBP and were used for experiments.
# (§10) The following process for purification of PPO protein was performed in a 4° C. cold room. […] The column was washed with 3 column volumes of buffer and the presence of protein in the washing solution was examined. When the protein was no longer detected, the washing procedure was terminated. Then, the MBP-PPO protein was eluted with approximately 2 column volumes of buffer containing 20 mM maltose. The protein concentration of each eluent was determined and the elution was stopped when the protein was no longer detected. Ten microliter of each fraction was investigated for protein quantification and SDS-PAGE analysis. […]
# (§11) Hundred and eighty microliters of a reaction mixture containing the purified PPO protein were placed in 96 well plates and 20 μl of purified PPO proteins were added. […] The reaction proceeded at room temperature for 30 min and the fluorescence of protoporphyrin IX was measured using Microplate reader (Sense, Hidex) (excitation: 405 nm; emission: 633 nm). […] To this, 2.7 N HCl was added, and the absorbance at 408 nm was measured. A standard curve was generated using standard protoporphyrin IX, and PPO activity was measured by calibration of protoporphyrin IX using the standard curve of protoporphyrin IX.
# [9] = biological target: Auxenochlorella protothecoides ApPPO1 (SEQ ID NO: 1) variant V213C, fused to MBP (Auxenochlorella protothecoides, UniProt A0A087SQM0, V213C); experiment: biochemical
# Auxenochlorella protothecoides ApPPO1 (SEQ ID NO: 1) variant V213C, fused to MBP, sequence (A0A087SQM0 entry or part of it V213C): as the sequence (A0A087SQM0 entry or part of it V360M) above, with V163C, M310V counted along it
# Method: as §9, §10, §11
# [10] = biological target: T3, Myxococcus xanthus MxPPO (SEQ ID NO: 3) variant A170C, fused to MBP (Myxococcus xanthus, UniProt P56601, A170C); experiment: PPO enzyme inhibition assay (IC50), MBP-fused PPO (Table 15); format: biochemical
# T3 construct: made in house; host or cells: BL21 CodonPlus(DE3) E. coli
# T3 sequence (P56601 whole entry A170C, the tested form may be a part): as the sequence (P56601 whole entry I168C, the tested form may be a part) above, with C168I, A170C counted along it
# Method: as §9
# (§12) In order to express wild type and variant proteins of ApPPO1 and MxPPO, those genes were introduced into pMAL-c2x vector (refer to FIG. 25), respectively.
# as §10
# (§13) Hundred and eighty microliters of a reaction mixture containing the purified PPO protein were placed in 96 well plates and 20 μl of purified PPO proteins were added. […] The reaction proceeded at room temperature for 30 min and the fluorescence of protoporphyrin IX was measured using Microplate reader (Sense, Hidex) (excitation: 405 nm; emission: 633 nm). […] To this, 2.7 N HCl was added, and the absorbance at 408 nm was measured. […]
# [11] = biological target: T4, Myxococcus xanthus MxPPO (SEQ ID NO: 3) variant R95A, fused to MBP (Myxococcus xanthus, UniProt P56601, R95A); experiment: biochemical
# T4 construct: For encoding the PPO protein (MxPPO); made in house; host or cells: BL21 CodonPlus(DE3) E. coli
# T4 sequence (P56601 whole entry R95A, the tested form may be a part): as the sequence (P56601 whole entry I168C, the tested form may be a part) above, with R95A, C168I counted along it
# [12] = system: wild type A. thaliana (Col-0 ecotype); experiment: Herbicide spray test on 4-week-old plants, wild type; format: in vivo, Arabidopsis thaliana; settings: 100 ml of 1 μM tiafenacil and 0.05% Silwet L-77 per 0.24 m^2; within 7 days
# Method: In order to examine PPO-inhibiting herbicide tolerance of the transgenic plants, 4-week-old plants were evenly sprayed with herbicide (100 ml of 1 μM tiafenacil and 0.05% Silwet L-77 (v/v)) in 40×60 cm area (0.24 m^2).
# [13] = biological target: T5, Myxococcus xanthus MxPPO (protoporphyrinogen IX oxidase), wild type, SEQ ID NO: 3, fused to MBP (Myxococcus xanthus, UniProt P56601); experiment: PPO enzyme inhibition assay (IC50), MBP-fused PPO (Table 15); format: biochemical; settings: protoporphyrinogen IX 50 μM, room temperature, 30 min
# T5 construct: For encoding the PPO protein (MxPPO); made in house; host or cells: BL21 CodonPlus(DE3) E. coli
# T5 sequence (P56601 whole entry, the tested form may be a part): as the sequence (P56601 whole entry I168C, the tested form may be a part) above, with C168I counted along it
# [14] = system: E. coli BT3(ΔPPO) transformed with Auxenochlorella protothecoides ApPPO1 (SEQ ID NO: 1) variant V360M (VM); experiment: Herbicide tolerance test in PPO-deficient E. coli BT3(ΔPPO), growth on plates; format: cell-based; settings: Table 7, light, 37° C., 16 to 20 hours, vs wild type at highest herbicide concentration
# [15] = system: E. coli BT3(ΔPPO) transformed with Auxenochlorella protothecoides ApPPO1 wild type, SEQ ID NO: 1; experiment: as above; format: cell-based; settings: ApPPO1 WT, 37° C., 16 to 20 hours
# Method: (§1) Then, the extent of tolerance was evaluated.
# [16] = system: E. coli BT3(ΔPPO) transformed with Myxococcus xanthus MxPPO wild type, SEQ ID NO: 3; experiment: as above; format: cell-based; settings: MxPPO WT, light
# Method: as §1
# [17] = biological target: T6, Myxococcus xanthus MxPPO (SEQ ID NO: 3) variant L332T, fused to MBP (Myxococcus xanthus, UniProt P56601, L332T); experiment: PPO enzyme inhibition assay (IC50), MBP-fused PPO (Table 15); format: biochemical
# T6 construct: made in house; host or cells: BL21 CodonPlus(DE3) E. coli
# T6 sequence (P56601 whole entry L332T, the tested form may be a part): as the sequence (P56601 whole entry I168C, the tested form may be a part) above, with C168I, L332T counted along it
# Method: as §9, §12, §10, §13
# [18] = system: E. coli BT3(ΔPPO) transformed with Myxococcus xanthus MxPPO (SEQ ID NO: 3) variant M365V; experiment: Herbicide tolerance test in PPO-deficient E. coli BT3(ΔPPO), growth on plates; format: cell-based; settings: Table 9, light, tiafenacil to 2000 μM, saflufenacil to 200 μM, flumioxazin to 100 μM
# Method: as §2, §3, §4, §5, §6
# [19] = system: E. coli BT3(ΔPPO) transformed with Auxenochlorella protothecoides ApPPO1 (SEQ ID NO: 1) variant Y422M (YM); experiment: as above; format: cell-based; settings: Table 7, light, 37° C., 16 to 20 hours, vs wild type at highest herbicide concentration
# Method: as §2, §3, §4, §5, §7, §8
# [20] = biological target: Auxenochlorella protothecoides ApPPO1 (SEQ ID NO: 1) variant F386V, fused to MBP (Auxenochlorella protothecoides, UniProt A0A087SQM0, F386V); experiment: PPO enzyme inhibition assay (IC50), MBP-fused PPO; format: biochemical
# Auxenochlorella protothecoides ApPPO1 (SEQ ID NO: 1) variant F386V, fused to MBP, sequence (A0A087SQM0 entry or part of it F386V): as the sequence (A0A087SQM0 entry or part of it V360M) above, with M310V, F336V counted along it
# [21] = biological target: T7, Myxococcus xanthus MxPPO (SEQ ID NO: 3) variant I311M, fused to MBP (Myxococcus xanthus, UniProt P56601, I311M); experiment: biochemical
# T7 construct: made in house; host or cells: BL21 CodonPlus(DE3) E. coli
# T7 sequence (P56601 whole entry I311M, the tested form may be a part): as the sequence (P56601 whole entry I168C, the tested form may be a part) above, with C168I, I311M counted along it
# Method: as §9, §12, §10, §13
# [22] = system: E. coli BT3(ΔPPO) transformed with Auxenochlorella protothecoides ApPPO1 (SEQ ID NO: 1) variant Y422L (YL); experiment: Herbicide tolerance test in PPO-deficient E. coli BT3(ΔPPO), growth on plates; format: cell-based; settings: Table 7, light, 37° C., 16 to 20 hours, vs wild type at highest herbicide concentration
# Method: as §2, §3, §4, §5, §7, §8
# [23] = biological target: Auxenochlorella protothecoides ApPPO1 (protoporphyrinogen IX oxidase), wild type, SEQ ID NO: 1, fused to MBP (Auxenochlorella protothecoides, UniProt A0A087SQM0); experiment: PPO enzyme inhibition assay (IC50), MBP-fused PPO; format: biochemical; settings: ApPPO1 WT; 50 μM protoporphyrinogen IX, pH 8.0, room temperature, 30 min
# Auxenochlorella protothecoides ApPPO1 (protoporphyrinogen IX oxidase), wild type, SEQ ID NO: 1, fused to MBP, sequence (A0A087SQM0 51-532): as the sequence (A0A087SQM0 entry or part of it V360M) above, with M310V counted along it
smiles,measurement,setting,value
COC(=O)CCNC(=O)C(C)Sc1cc(-n2c(=O)cc(C(F)(F)F)n(C)c2=O)c(F)cc1Cl (stereo not shown) [tiafenacil],relative herbicide tolerance level,[1],+ (1-9 fold higher tolerance)
same,relative herbicide tolerance level,[2],+ (1-9 fold higher tolerance)
same,relative herbicide tolerance level,[3],+ (1-9 fold higher tolerance)
same,pIC50,[4],6.26
same,relative herbicide tolerance level,[5],++ (10-99 fold higher tolerance)
same,pIC50,[6],6.44
same,pIC50,[7],7.12
same,pIC50,[8],7.12
same,pIC50,[9],7.09
same,pIC50,[10],5.77
same,pIC50,[11],5.63
same,plant damage after spraying,[12],completely died within 7 days after treatment
same,IC50,[13],0.242 µM
same,relative herbicide tolerance level,[14],++ (10-99 fold higher tolerance)
same,relative herbicide tolerance level,"[15]; Table 7, light, vs wild type at highest herbicide concentration",−
same,relative herbicide tolerance level,"[15]; Table 8, dark, tiafenacil to 200 μM, flumioxazin to 100 μM, sulfentrazone to 400 μM",−
same,relative herbicide tolerance level,"[16]; Table 9, tiafenacil to 2000 μM, saflufenacil to 200 μM, flumioxazin to 100 μM",−
same,relative herbicide tolerance level,"[16]; Table 10, tiafenacil 2000 μM, flumioxazin to 400 μM, sulfentrazone to 1000 μM",−
same,pIC50,[17],6.00
same,relative herbicide tolerance level,[18],+ (1-9 fold higher tolerance)
same,relative herbicide tolerance level,[19],+++ (100-999 fold higher tolerance)
same,pIC50,[20],6.43
same,pIC50,[21],6.02
same,relative herbicide tolerance level,[22],++ (10-99 fold higher tolerance)
same,pIC50,[23],7.68
